The record followed here is patent US9834542B2, “LXR modulators” (BRISTOL-MYERS SQUIBB COMPANY, priority 2013, dated 2017).

Broadly, the EC50 is the midpoint of the concentration-response curve. Read a low EC50 as an effect from little substance.

For this test, the target named is T1, LXRβ (Homo sapiens, UniProt P55055).
T1 construct: Co-transfection expression plasmids, comprising full-length LXRα (pCMX-h LXRα[…] or LXRβ (pCMX-hLXRβ)); expressed in transfected cells; host or cells: CV-1 African Green Monkey Kidney Cells
T1 sequence (P55055 1-460): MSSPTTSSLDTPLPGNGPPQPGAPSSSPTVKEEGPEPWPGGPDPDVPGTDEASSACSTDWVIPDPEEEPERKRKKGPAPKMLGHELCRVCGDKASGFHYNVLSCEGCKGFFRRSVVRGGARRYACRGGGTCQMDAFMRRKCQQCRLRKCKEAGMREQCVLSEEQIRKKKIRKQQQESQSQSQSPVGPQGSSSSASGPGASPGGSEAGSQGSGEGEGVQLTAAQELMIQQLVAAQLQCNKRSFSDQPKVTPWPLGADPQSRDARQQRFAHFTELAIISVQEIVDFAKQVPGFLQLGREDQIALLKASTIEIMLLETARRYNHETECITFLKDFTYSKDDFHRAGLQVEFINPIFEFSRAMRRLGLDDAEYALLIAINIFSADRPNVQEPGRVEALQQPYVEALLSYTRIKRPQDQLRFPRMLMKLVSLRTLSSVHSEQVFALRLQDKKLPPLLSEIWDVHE
T1 sequence (P19793 1-462 partner): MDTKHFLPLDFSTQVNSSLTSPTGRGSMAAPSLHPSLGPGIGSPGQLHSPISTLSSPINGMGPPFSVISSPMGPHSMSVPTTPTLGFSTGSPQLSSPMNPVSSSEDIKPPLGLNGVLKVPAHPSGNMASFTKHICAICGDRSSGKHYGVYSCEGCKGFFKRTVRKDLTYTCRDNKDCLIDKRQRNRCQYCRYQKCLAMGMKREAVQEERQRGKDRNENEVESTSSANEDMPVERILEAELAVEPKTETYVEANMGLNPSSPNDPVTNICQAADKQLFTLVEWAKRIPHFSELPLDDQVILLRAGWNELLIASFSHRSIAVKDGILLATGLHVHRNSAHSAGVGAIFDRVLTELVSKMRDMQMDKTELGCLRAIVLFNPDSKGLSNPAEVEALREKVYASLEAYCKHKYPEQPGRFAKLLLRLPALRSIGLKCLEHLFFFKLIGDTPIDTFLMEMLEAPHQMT
The test can be described thus: Co-transfection assay (LXRE luciferase reporter), LXRβ. The format is cell-based. To be noted: for EC50: CV-1 cells transfected with pCMX-hLXRβ and LXREx1-Tk-Luciferase, 20 hours incubation; for Emax: LXRβ co-transfection, relative to high control 1-(2,4-difluorobenzyl)-2-oxo-6-(4-phenoxyphenyl)-4-(trifluoromethyl)-1,2-dihydropyridine-3-carbonitrile, read-out: % Efficacy. The essentials: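 CV-1 / pCMX-hLXRβ + LXREx1-Tk-Luc + β-gal; cpd 20 h, 37 °C, ≤0.5% DMSO; Steady-Glo luminescence. 11-pt ½-log curves, duplicate wells, sigmoidal fit → EC50; % efficacy vs high-control agonist, DMSO low control; mean of ≥2 expts.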
(In general: In a reporter assay the amount or activity of a reporter protein is the signal.)

Regarding `Cc1nc(C(F)(F)F)cn1-c1c(F)cc(-c2cc(F)c(CO)c(S(C)(=O)=O)c2)cc1-n1nncc1-c1ccc(OC(F)(F)F)cc1` [Example 202, [3,3′-difluoro-5-(methylsulfonyl)-4′-[2-methyl-4-(trifluoromethyl)-1H-imidazol-1-yl]-5′-(5-{4-[(trifluoromethyl)oxy]phenyl)-1H-1,2,3-triazol-1-yl)biphenyl-4-yl]methanol], the 50% effective concentration (EC50) was 0.106 µM and the Emax was found to be 77%.
Take `Cc1nc(C(F)(F)F)cn1-c1c(Cl)cc(-c2cccc(S(C)(=O)=O)c2)cc1-n1nncc1-c1ccc(OC(F)(F)F)cc1` [Example 195, 1-{5-chloro-3′-(methylsulfonyl)-4-[2-methyl-4-(trifluoromethyl)-1H-imidazol-1-yl]biphenyl-3-yl}-5-{4-[(trifluoromethyl)oxy]phenyl}-1H-1,2,3-triazole]: a half-maximal response (EC50) required 0.574 µM and the Emax worked out at 83%.
`Cc1nc(C(F)F)cn1-c1ccc(-c2cccc(C(C)(C)C(N)=O)c2)cc1-n1nncc1-c1ccc(OC(F)(F)F)cc1` [Example 156, 2-{4′-[4-(difluoromethyl)-2-methyl-1H-imidazol-1-yl]-3′-(5-{4-[(trifluoromethyl)oxy]phenyl}-1H-1,2,3-triazol-1-yl)biphenyl-3-yl}-2-methylpropanamide]: the midpoint of the response, the EC50, lay at 1.64 µM and the Emax was 93%.
Regarding `COc1ccc(-c2cnnn2-c2cc(-c3cccc(S(C)(=O)=O)c3)ccc2-n2cc(C(F)(F)F)nc2C)cc1OC(F)F` [Example 42, 5-{3-[(difluoromethyl)oxy]-4-(methyloxy)phenyl}-1-{3′-(methylsulfonyl)-4-[2-methyl-4-(trifluoromethyl)-1H-imidazol-1-yl]biphenyl-3-yl}-1H-1,2,3-triazole], the midpoint of the response, the EC50, lay at 1.06 µM and the Emax amounted to 43%.
Take `Cc1nc(-c2cc(-c3cccc(S(C)(=O)=O)c3)ccc2-n2cc(C(F)(F)F)nc2C)c(-c2ccc(F)c(Cl)c2)o1` [Example 510, 5-(3-chloro-4-fluorophenyl)-2-methyl-4-(4-(2-methyl-4-(trifluoromethyl)-1H-imidazol-1-yl)-3′-(methylsulfonyl)biphenyl-3-yl)oxazole]: the EC50 is 0.061 µM and the Emax stood at 76%.
For the compound `Cc1nc(C(F)(F)F)cn1-c1ccc(-c2cccc(S(C)(=O)=O)c2)cc1-n1nncc1-c1ccc(C#N)cc1` [Example 47, 4-(1-{3′-(methylsulfonyl)-4-[2-methyl-4-(trifluoromethyl)-1H-imidazol-1-yl]biphenyl-3-yl}-1H-1,2,3-triazol-5-yl)benzonitrile], the concentration giving a half-maximal response (EC50) is 2.54 µM and the Emax is 64%.
As for `COCS(=O)(=O)c1cccc(-c2ccc(-n3cc(C(F)(F)F)nc3C)c(-n3nncc3-c3ccc(OC(F)(F)F)cc3)c2)c1` [Example 238, 1-(3′-((methoxymethyl)sulfonyl)-4-(2-methyl-4-(trifluoromethyl)-1H-imidazol-1-yl)-[1,1′-biphenyl]-3-yl)-5-(4-(trifluoromethoxy)phenyl)-1H-1,2,3-triazole], the EC50 was found to be 0.489 µM and the Emax was found to be 90%.
With `Cc1nc(-c2cc(-c3cc(F)c(CO)c(S(C)(=O)=O)c3)ccc2-n2cc(C(F)(F)F)nc2C)c(-c2ccc(Cl)cc2)o1` [Example 374, {3′-[5-(4-chlorophenyl)-2-methyl-1,3-oxazol-4-yl]-3-fluoro-5-(methylsulfonyl)-4′-[2-methyl-4-(trifluoromethyl)-1H-imidazol-1-yl]biphenyl-4-yl}methanol], the concentration giving a half-maximal response (EC50) came to 0.05 µM and the Emax was found to be 72%.
Take `Cc1nc(C(F)(F)F)cn1-c1ccc(-c2cc(F)c(CO)c(S(C)(=O)=O)c2)cc1-c1nc(C2CC2)cn1-c1ccc2c(c1)OC(F)(F)O2` [Example 639, (3′-(4-cyclopropyl-1-(2,2-difluorobenzo[d][1,3]dioxol-5-yl)-1H-imidazol-2-yl)-3-fluoro-4′-(2-methyl-4-(trifluoromethyl)-1H-imidazol-1-yl)-5-(methylsulfonyl)biphenyl-4-yl)methanol]: the midpoint of the response, the EC50, lay at 0.129 µM and the Emax came out at 81%.
Turning to `Cc1nc(-c2cc(-c3cccc(S(C)(=O)=O)c3)ccc2-n2cc(C(F)(F)F)nc2C)c(-c2ccc(OC(F)(F)C(F)(F)F)cc2)o1` [Example 572, 2-methyl-4-(4-(2-methyl-4-(trifluoromethyl)-1H-imidazol-1-yl)-3′-(methylsulfonyl)-[1,1′-biphenyl]-3-yl)-5-(4-(perfluoroethoxy)phenyl)oxazole], the EC50 is 0.095 µM and the Emax worked out at 46%.
Consider `Cc1nc(C(F)(F)F)cn1-c1ccc(-c2cccc(S(C)(=O)=O)c2)cc1-c1nc(CCO)oc1-c1ccc2c(c1)OC(F)(F)O2` [Example 531], for which the response was half-maximal at 0.422 µM (EC50) and the Emax worked out at 74%.
The like results for `Cc1nc(-c2cc(-c3cccc(C(=O)N(C)C)c3)ccc2-n2cc(C(F)(F)F)nc2C)c(-c2ccc3c(c2)OC(F)(F)O3)o1` [Example 418, 3′-(5-(2,2-difluorobenzo[d][1,3]dioxol-5-yl)-2-methyloxazol-4-yl)-N,N-dimethyl-4′-(2-methyl-4-(trifluoromethyl)-1H-imidazol-1-yl)biphenyl-3-carboxamide] were, in that order, 0.74 µM and 73%.
The corresponding values for `Cc1nc(C(F)(F)F)cn1-c1ccc(-c2cccc(S(C)(=O)=O)c2)cc1-c1ccnn1-c1ccc(Cl)nc1` [Example 296, 2-chloro-5-(5-(4-(2-methyl-4-(trifluoromethyl)-1H-imidazol-1-yl)-3′-(methylsulfonyl)biphenyl-3-yl)-1H-pyrazol-1-yl)pyridine] are 0.572 µM and 75%.
Turning to `Cc1nc(-c2cc(-c3cccc(S(C)(=O)=O)c3)ccc2-n2cc(C(F)(F)F)nc2C)c(-c2cc(F)cc(F)c2)o1` [Example 447], the EC50 came out at 0.269 µM and the Emax came out at 64%.
Regarding `Cc1nc(C(F)(F)F)c(Cl)n1-c1ccc(-c2cccc(S(C)(=O)=O)c2)cc1-c1cnnn1-c1ccc(Cl)cc1` [Example 243, 5-{4-[5-chloro-2-methyl-4-(trifluoromethyl)-1H-imidazol-1-yl]-3′-(methylsulfonyl)biphenyl-3-yl}-1-(4-chlorophenyl)-1H-1,2,3-triazole], the midpoint of the response, the EC50, lay at 0.238 µM and the Emax is 107%.
On to `Cc1nc(C(F)(F)F)cn1-c1ccc(-c2cccc(S(C)(=O)=O)c2)cc1-n1nncc1Cc1cccc(Cl)c1` [Example 121, 5-[(3-chlorophenyl)methyl]-1-{3′-(methylsulfonyl)-4-[2-methyl-4-(trifluoromethyl)-1H-imidazol-1-yl]biphenyl-3-yl}-1H-1,2,3-triazole], for which a half-maximal effect (EC50) was put at 0.651 µM and the Emax came out at 100%.
The like results for `Cc1cc(-c2oc(C)nc2-c2cc(-c3cccc(S(C)(=O)=O)c3)ccc2-n2cc(Cl)nc2C)cc(Cl)n1` [Example 468, 4-(4-(4-chloro-2-methyl-1H-imidazol-1-yl)-3′-(methylsulfonyl)biphenyl-3-yl)-5-(2-chloro-6-methylpyridin-4-yl)-2-methyloxazole] were, in that order, 0.442 µM and 47%.
Regarding `Cc1nc(C(C)(F)F)cn1-c1ccc(-c2cc(F)c(CO)c(S(C)(=O)=O)c2)cc1-c1ocnc1-c1ccc(OC(F)(F)F)cc1` [Example 356, (4′-(4-(1,1-difluoroethyl)-2-methyl-1H-imidazol-1-yl)-3-fluoro-5-(methylsulfonyl)-3′-(4-(4-(trifluoromethoxy)phenyl)oxazol-5-yl)biphenyl-4-yl)methanol], the EC50 was 0.599 µM and the Emax came out at 79%.
On to `CS(=O)(=O)c1cccc(-c2cc(Cl)c(-n3cnc(C(F)(F)F)c3)c(-n3nncc3-c3ccc(OC(F)(F)F)cc3)c2)c1` [Example 192, 1-{5-chloro-3′-(methylsulfonyl)-4-[4-(trifluoromethyl)-1H-imidazol-1-yl]biphenyl-3-yl}-5-{4-[(trifluoromethyl)oxy]phenyl}-1H-1,2,3-triazole], for which the half-maximal effective concentration (EC50) was determined as 0.598 µM and the Emax stood at 42%.
On to `Cc1nc(-c2cc(-c3ccc(C)c(S(C)(=O)=O)c3)ccc2-n2cc(C(F)(F)F)nc2C)c(-c2ccc(OC(F)F)c(F)c2)o1` [Example 435, 5-(4-(difluoromethoxy)-3-fluorophenyl)-2-methyl-4-(4′-methyl-4-(2-methyl-4-(trifluoromethyl)-1H-imidazol-1-yl)-3′-(methylsulfonyl)biphenyl-3-yl)oxazole], for which it took 0.069 µM to reach a half-maximal effect (EC50) and the Emax came out at 87%.
